According to PubChem BioAssay AID270 (DTP/NCI, 2004):
Inconclusive results are not listed. *1 amine or outer side, *2 acyl side, *3 side chain or, on linkers, in order; H or OH if unused. Where a SMILES comes first, the peptide text is derived from it. Bridges are numbered along the chain shown (N, C = ends). [ ]: non-standard residue; d: D form. The star is where a group is joined. X2 = CC(C)C(C)C(C(=O)[*:2])N(C)[*:1]; Picolinoyl(3-OH) = O=C(c1ncccc1O)*; NMePhg = CN[CH](C(=O)O)c1ccccc1; Hyp = O=C(O)[CH]1C[CH](O)CN1; Sar = CNCC(=O)O

Tested on: BDF1 mice, s.c. Lewis lung carcinoma, T/C %
Experiment: NCI In Vivo Anticancer Drug Screen. Data for tumor model Lewis Lung Carcinoma (subcutaneous) in B6D2F1 (BDF1) mice
Outline: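 The value reflects a ratio in which the treated cohort's survival time or tumour size is compared against mice receiving only vehicle.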

[1] = endpoint: median survival time, dose: 3.12 mg/kg/injection, schedule: Q01DX009 (ip), vehicle: Klucel (hydroxypropylcellulose) (HPC), higher = longer survival

With `CC(=O)Oc1ccc(OC(C)=O)c2c1C(=O)C=CC2=O` the T/C (endpoint: median survival time, dose: 0.38 mg/kg/injection, schedule: Q01DX009 (ip), vehicle: Klucel (hydroxypropylcellulose) (HPC), higher = longer survival) was 107 % of control, the T/C (endpoint: median survival time, dose: 0.75 mg/kg/injection, schedule: Q01DX009 (ip), vehicle: Klucel (hydroxypropylcellulose) (HPC), higher = longer survival) was 96 % of control and the T/C (endpoint: median survival time, dose: 1.5 mg/kg/injection, schedule: Q01DX009 (ip), vehicle: Klucel (hydroxypropylcellulose) (HPC), higher = longer survival) was 100 % of control. For the same molecule, the T/C (endpoint: median survival time, dose: 3.0 mg/kg/injection, schedule: Q01DX009 (ip), vehicle: Klucel (hydroxypropylcellulose) (HPC), higher = longer survival) was 113 % of control and the T/C [1] was 111 % of control.
With `CCO/C=C1\SC(=S)N(c2ccccc2OC)C1=O` the T/C (endpoint: median survival time, dose: 1.56 mg/kg/injection, schedule: Q01DX009 (ip), vehicle: Klucel (hydroxypropylcellulose) (HPC), higher = longer survival) was 100 % of control, the T/C [1] was 98 % of control and the T/C (endpoint: median survival time, dose: 6.25 mg/kg/injection, schedule: Q01DX009 (ip), vehicle: Klucel (hydroxypropylcellulose) (HPC), higher = longer survival) was 109 % of control. The T/C (endpoint: median survival time, dose: 12.5 mg/kg/injection, schedule: Q01DX009 (ip), vehicle: Klucel (hydroxypropylcellulose) (HPC), higher = longer survival) was 101 % of control.
With `CC[CH2][Pb]([CH2]CC)([CH2]CC)[O]C(=O)C(Cl)(Cl)Cl` the T/C (endpoint: median survival time, dose: 0.19 mg/kg/injection, schedule: Q01DX009 (ip), vehicle: saline with Tween-80, higher = longer survival) was 101 % of control, the T/C (endpoint: median survival time, dose: 0.38 mg/kg/injection, schedule: Q01DX009 (ip), vehicle: saline with Tween-80, higher = longer survival) was 94 % of control and the T/C (endpoint: median survival time, dose: 0.75 mg/kg/injection, schedule: Q01DX009 (ip), vehicle: saline with Tween-80, higher = longer survival) was 90 % of control. The T/C (endpoint: median survival time, dose: 1.5 mg/kg/injection, schedule: Q01DX009 (ip), vehicle: saline with Tween-80, higher = longer survival) was 103 % of control, the T/C (endpoint: median survival time, dose: 3.0 mg/kg/injection, schedule: Q01DX009 (ip), vehicle: saline with Tween-80, higher = longer survival) was 106 % of control and the T/C (endpoint: median survival time, dose: 6.0 mg/kg/injection, schedule: Q01DX009 (ip), vehicle: saline with Tween-80, higher = longer survival) was 106 % of control.
With `O=C(Nc1ccc(C2=NCCN2)cc1)c1ccc(C(=O)Nc2ccc(C3=NCCN3)cc2)c(Cl)c1` the T/C (endpoint: mean tumor weight, dose: 5.0 mg/kg/injection, schedule: Q01DX011 (ip), vehicle: carboxymethylcellulose (CMC), higher = larger tumour) was 73 % of control, the T/C (endpoint: mean tumor weight, dose: 10.0 mg/kg/injection, schedule: Q01DX011 (ip), vehicle: carboxymethylcellulose (CMC), higher = larger tumour) was 51 % of control and the T/C (endpoint: mean tumor weight, dose: 20.0 mg/kg/injection, schedule: Q01DX011 (ip), vehicle: carboxymethylcellulose (CMC), higher = larger tumour) was 81 % of control.
In the case of `CC1CN1P(=S)(N1CC1C)N1CC1C` (stereo unspecified), the T/C (endpoint: mean tumor weight, dose: 9.0 mg/kg/injection, schedule: Q01DX011 (ip), vehicle: carboxymethylcellulose (CMC), higher = larger tumour) is reported as 87 % of control, the T/C (endpoint: mean tumor weight, dose: 17.5 mg/kg/injection, schedule: Q01DX011 (ip), vehicle: carboxymethylcellulose (CMC), higher = larger tumour) is reported as 72 % of control and the T/C (endpoint: mean tumor weight, dose: 53.0 mg/kg/injection, schedule: Q01DX011 (ip), vehicle: carboxymethylcellulose (CMC), higher = larger tumour) is reported as 23 % of control.
`Cc1cc(O)c(C(C)C)cc1S(=O)(=O)O` (tested in a mixture with another compound) was tested, and the T/C (endpoint: mean tumor weight, dose: 25.0 mg/kg/injection, schedule: Q01DX011 (ip), vehicle: other, higher = larger tumour) was 95 % of control, the T/C (endpoint: mean tumor weight, dose: 50.0 mg/kg/injection, schedule: Q01DX011 (ip), vehicle: other, higher = larger tumour) was 105 % of control and the T/C (endpoint: mean tumor weight, dose: 100.0 mg/kg/injection, schedule: Q01DX011 (ip), vehicle: other, higher = larger tumour) was 114 % of control. For the same molecule, the T/C (endpoint: mean tumor weight, dose: 200.0 mg/kg/injection, schedule: Q01DX011 (ip), vehicle: other, higher = larger tumour) was 98 % of control.
With `CC(C)CC1NC(=O)C(NC(=O)c2ncccc2O)C(C)OC(=O)C(c2ccccc2)N(C)C(=O)C(C)NC(=O)C(C(C)C(C)C)N(C)C(=O)CN(C)C(=O)C2CC(O)CN2C1=O` (stereo unspecified) ({Picolinoyl(3-OH)}-TL[Hyp][Sar][X2]A[NMePhg]; ester 1-C; configuration not given here) the T/C (endpoint: mean tumor weight, dose: 5.3 mg/kg/injection, schedule: Q01DX011 (ip), vehicle: saline, higher = larger tumour) was 90 % of control, the T/C (endpoint: mean tumor weight, dose: 8.0 mg/kg/injection, schedule: Q01DX011 (ip), vehicle: saline, higher = larger tumour) was 86 % of control and the T/C (endpoint: mean tumor weight, dose: 12.0 mg/kg/injection, schedule: Q01DX011 (ip), vehicle: saline, higher = larger tumour) was 88 % of control. For the same molecule, the T/C (endpoint: mean tumor weight, dose: 18.0 mg/kg/injection, schedule: Q01DX011 (ip), vehicle: saline, higher = larger tumour) was 122 % of control.
In the case of `O=NN(CCCl)C(=O)Nc1ccc(Cl)c(Cl)c1`, the T/C (endpoint: median survival time, dose: 8.0 mg/kg/injection, schedule: Q01DX009 (ip), vehicle: saline with Tween-80, higher = longer survival) is reported as 116 % of control and the T/C (endpoint: median survival time, dose: 16.0 mg/kg/injection, schedule: Q01DX009 (ip), vehicle: saline with Tween-80, higher = longer survival) is reported as 106 % of control.
